Results published in patent US20080090859A1, “Use of Selective Opiate Receptor Modulators In the Treatment Of Neuropathy” (TIOGA PHARMACEUTICALS, INC., priority 2003, published 2008).

What was measured:
[1] = test system: L5/L6 spinal nerve ligated rats (tactile allodynia); experiment: Tactile allodynia (Von Frey filaments) in rats with L5 and L6 spinal nerve ligation; assay type: in vivo, rat
From the text: B) Neuropathic pain was induced by surgical […], i.e. the L5 and L6 spinal nerves on one side were tightly ligated in anesthetized rats. After 15 days of recovery, a series of Von Frey filaments (0.4- 15 g) was applied in sequence to the plantar surface of the ligated hind paw to determine the 50% mechanical threshold for foot withdrawal as described before.

[2] = test system: capsaicin-treated monkey tail (thermal allodynia); experiment: Capsaicin-induced thermal allodynia, tail withdrawal latency in monkey model; assay type: in vivo; conditions: 45 min after administration; for Tail Withdrawal Latency Mean ± SEM: capsaicin, cut-off 20 sec
Description: C) Because neuropatic pain is characterized by allodynia for various sensory modalities, also thermal allodynia was investigated in a monkey model where allodynia was induced by the topical application of […] of capsaicin to the surface of the tail. Allodynia was assessed by the latency for withdrawal of the tail following immersion of the tail into water with non-noxious temperatures of either 38° C. or 42° C. (cut-off latency of 20 sec).

[3] = test system: streptozotocin diabetic rats (tactile allodynia); experiment: Tactile allodynia (Von Frey filaments) in streptozotocin diabetic rats; assay type: in vivo, rat
Description: A) Insulin deficient diabetes was induced in rats by a single injection of streptozotocin (50 mg/kg, intraperitoneally). After having confirmed the development of diabetes by established hyperglycemia, determined in blood samples taken from the rats, asimadoline was administered subcutaneously at doses of 1 mg/kg, 5 mg/kg and 15 mg/kg. For comparison, gabapentin, the most recent treatment for diabetic neuropathy, at 50 mg/kg was included. To determine mechanical threshold (tactile allodynia) for foot withdrawal, a series of Von Frey filaments (minimum 0.25 g; maximum 15 g) was applied in sequence to the plantar surface of the right hindpaw with a pressure that causes the filament to buckle, starting with a filament of a buckling weight of 2 g. Absence of a response after 5 seconds was regarded a negative response, and the next heavier filament was applied. Lifting of the paw was recorded as a positive response, and the next lightest filament were applied. This sequence was continued until four measurements have been made after an initial change in the behavior or until five consecutive negative (given the score of 15 g) or four positive (score of 0.25 g) scores were obtained. The resulting sequence of positive and negative scores was used to determine the 50% response threshold.
That the beneficial effects are indeed due to the opioid mechanism of asimadoline can also be seen in Table 1.

In the case of `CN(C(=O)C(c1ccccc1)c1ccccc1)[C@H](CN1CC[C@H](O)C1)c1ccccc1.Cl` [Asimadoline, N-methyl-N-[(1S)-1-phenyl-2-((3S)-3-hydroxypyrrolidin-1-yl)ethyl]-2,2-diphenylacetamide, hydrochloride], the “50% Response Threshold Mean ± SEM” value ([1]; 1 mg/kg p.o., 2 h after administration) was 6.4 ± 0.5 g, the “50% Response Threshold Mean ± SEM” value ([1]; 3 mg/kg p.o., 2 h after administration) was 10.1 ± 0.6 g and the “50% Response Threshold Mean ± SEM” value ([1]; 10 mg/kg p.o., 2 h after administration) was 12.0 ± 0.4 g. The “effect on tactile allodynia (in words)” value ([1]; highest dose (10 mg/kg p.o.), 2 h after administration) was “nearly completely abolished tactile allodynia”, the “Tail Withdrawal Latency Mean ± SEM” value ([2]; 0.01 mg/kg s.c., water 38° C.) was 8.0 ± 4.5 s and the “Tail Withdrawal Latency Mean ± SEM” value ([2]; 0.01 mg/kg s.c., water 42° C.) was 4.5 ± 2.5 s. The “Tail Withdrawal Latency Mean ± SEM” value ([2]; 0.032 mg/kg s.c., water 38° C.) was 19.6 ± 0.4 s, the “Tail Withdrawal Latency Mean ± SEM” value ([2]; 0.032 mg/kg s.c., water 42° C.) was 12.8 ± 4.2 s and the “effect on thermal allodynia (in words)” value ([2]; highest dose (0.032 mg/kg s.c.), 38° C. condition) was “nearly completely abolished thermal allodynia”. The “50% Response Threshold Mean ± SEM” value ([3]; diabetic rats, 1 mg/kg s.c., 3 h after administration) was 2 ± 0.2 g, the “50% Response Threshold Mean ± SEM” value ([3]; diabetic rats, 5 mg/kg s.c., 3 h after administration) was 6 ± 2.0 g and the “50% Response Threshold Mean ± SEM” value ([3]; diabetic rats, 15 mg/kg s.c., 3 h after administration) was 9 ± 1.7 g. The “effect on tactile allodynia (in words)” value ([3]; diabetic rats, highest dose (15 mg/kg s.c.), 3 h after administration) was “nearly completely abolished tactile allodynia”, the “anti-allodynic effect after intraplantar injection of kappa antagonist nor-BNI (in words)” value ([3]; diabetic rats, highest dose of asimadoline + nor-BNI i.pl.) was “completely abolished” and the “50% Response Threshold Mean ± SEM” value ([3]; diabetic rats, nor-BNI 100 μg i.pl. + Asimadoline 15 mg/kg s.c.) was 3 ± 1.0 g.
For `NCC1(CC(=O)O)CCCCC1` [Gabapentin, reference compound], the “50% Response Threshold Mean ± SEM” value ([1]; 100 mg/kg p.o.) was 12.8 ± 1.6 g and the “50% Response Threshold Mean ± SEM” value ([3]; diabetic rats, 50 mg/kg s.c.) was 10 ± 1.9 g.
For `Oc1ccc2c3c1O[C@H]1c4[nH]c5c(c4C[C@@]4(O)[C@@H](C2)N(CC2CC2)CC[C@]314)C[C@@]1(O)[C@H]2Cc3ccc(O)c4c3[C@@]1(CCN2CC1CC1)[C@H]5O4` [nor-BNI, nor-binaltorphimine, reference compound], the “50% Response Threshold Mean ± SEM” value ([3]; non-diabetic control rats, nor-BNI 100 μg i.pl.) was 13 ± 1.6 g.
